Entries after “also recorded” stand apart in the source; their conditions may differ. Like-named read-outs stand apart in the source and are kept apart here.
Tests used:
[1] = set-up: species or system C57BL/6 mice; details: mouse, in vivo
Procedure: (§1) S-allyl-L-Cysteine (SAC) was purchased from TCI Chemical Co. (Tokyo, Japan). Helicobacter pylori was American Type Culture Collection (ATCC) 43504 (cagA+, vacA s1-ml type) and cultured in a Mueller Hinton-Agar broth at 37° C. for 48 hours, under 5% CO2 microaerophilic conditions with a concentration of 1×10^9 CFU/ml.
8-week old male specific pathogen free (SPF) C57BL/6 mice were used. Weights of the mice were measured in the Animal Lab, Department of Pathology, the College of Veterinary Medicine, Kyungbook National University. Then, the mice were classified into 4 groups and bred such that average weights of each group are similar to each other. The mice were acclimated and bred in the Animal Lab, Department of Pathology, the College of Veterinary Medicine, Kyungbook National University at a temperature of 22±3° C., at a relative humidity of 50±10%, with light for 12 hours (light turned on at 08:00 and light turned off at 20:00) by an automatic temperature and humidity control system. Other environments for breeding which might influence the test for the entire test period were not considered for use. […]
Weights of male C57BL/6 mice infected with Helicobacter pylori ere measured three times a week for the entire 10-week test period to observe weight changes of the mice.

H. pylori ATCC 43504 = experiment: Serum anti-H. pylori IgG (ELISA) in Helicobacter pylori-infected mice; format: in vivo, C57BL/6 mice
Procedure: as §1
(§2) 8-week old male C57BL/6 mice were classified into 4 groups, i.e., a positive control group (to which Helicobacter pylori was administered; PC), a negative control group (to which saline was administered; NC), experimental group 1 (to which Helicobacter pylori and 200 mg/kg of SAC were administered; SAC1), and experimental group 2 (to which Helicobacter pylori and 400 mg/kg of SAC were administered; SAC2). Each group had 10 mice. White powdered SAC was diluted in tap water to concentrations of 20 mg/mL and 40 mg/mL and 10 μl/g (body weight) of the diluted SAC was orally administered to the mice of the SAC1 and SAC2 groups three times a week for 10 weeks. The mice were given free access to tap water for the entire test period. […]
Enzyme-linked immunosorbent assay (ELISA) was used in order to identify the effect of SAC on serum anti-Helicobacter pylori antibody-formation capability. […] 100 μl of 0.2 M sulfuric acid was added thereto to terminate the reaction and absorbance was measured at 450 nm.

Helicobacter pylori = experiment: Serologic parameters (GOT, GPT) in Helicobacter pylori-infected mouse model; format: in vivo, C57BL/6 mice; details: SAC1 and SAC2 groups
Procedure: as §2, with “period. The Helicobacter pylori was collected with saline to a concentration of 1×10^9 CFU/mL, and 0.2 mL of the diluted Helicobacter pylori was orally administered to each mouse for 8 weeks from 2 weeks after SAC administration. The mice were fasted for 8 hours before the infection, and 0.15 mL of 0.2 M sodium bicarbonate (NaHCO3) was administered to each mouse 10 minutes before the administration of Helicobacter pylori in order to neutralize acidified stomach due to the fasting. The same amount of saline instead of the infectious substances was administered into the NC group. The mice of all groups were fed with a normal diet.” for “period.”

Cu/Zn-SOD = experiment: Serum Cu/Zn-SOD level in Helicobacter pylori infection model; format: in vivo, C57BL/6 mice; details: for Cu/Zn-SOD level greater than that of the PC group by: serum
Procedure: 8-week old male C57BL/6 mice were classified into 4 groups, i.e., a positive control group (to which Helicobacter pylori was administered; PC), a negative control group (to which saline was administered; NC), experimental group 1 (to which Helicobacter pylori and 200 mg/kg of SAC were administered; SAC1), and experimental group 2 (to which Helicobacter pylori and 400 mg/kg of SAC were administered; SAC2). Each group had 10 mice. White powdered SAC was diluted in tap water to concentrations of 20 mg/mL and 40 mg/mL and 10 μl/g (body weight) of the diluted SAC was orally administered to the mice of the SAC1 and SAC2 groups three times a week for 10 weeks. The mice were given free access to tap water for the entire test period. The Helicobacter pylori was collected with saline to a concentration of 1×10^9 CFU/mL, and 0.2 mL of the diluted Helicobacter pylori was orally administered to each mouse for 8 weeks from 2 weeks after SAC administration. The mice were fasted for 8 hours before the infection, and 0.15 mL of 0.2 M sodium bicarbonate (NaHCO3) was administered to each mouse 10 minutes before the administration of Helicobacter pylori in order to neutralize acidified stomach due to the fasting. The same amount of saline instead of the infectious substances was administered into the NC group. The mice of all groups were fed with a normal diet. After a 10-week test period, autopsies were performed on all mice, and samples of blood and internal organs were collected for tissue pathological analyses. The test was performed according to the process of FIG. 19.
In this regard, a superoxide dismutase activity assay kit (BioVision, Mountain View, Calif., USA) was used. 20 μl of serum and 200 μl of a WST working solution as a substrate were mixed. 20 μl of an enzyme working solution was added thereto, and the mixture was maintained at 37° C. for 20 minutes. Absorbance was measured at 450 nm. A control reaction was conducted in the same manner as described above, except that 20 μl of distilled water was added thereto instead of serum. SOD activity (inhibition rate %) was calculated.

For `C=CCSC[C@H](N)C(=O)O` [SAC, S-allyl-L-cysteine], the “weight increase rate less than the PC group by” value ([1]; 200 mg/kg) was 2%, the “weight increase rate less than the PC group by” value ([1]; 400 mg/kg) was 0.2% and the “antibody titer of anti-H. pylori IgG in serum, SAC2 versus SAC1 group” value (H. pylori ATCC 43504; 400 mg/kg versus 200 mg/kg SAC) was “significantly less than that in the SAC1 group”. The “antibody titer of anti-H. pylori IgG in serum versus PC group” value (H. pylori ATCC 43504; SAC1 and SAC2 groups (200 and 400 mg/kg SAC oral, 10 weeks)) was “significantly less; also recorded: less than that in the PC group”, the “serum GPT level versus PC group” value (Helicobacter pylori; not significantly different) was “less than that of the PC group; also recorded: less than the positive control group” and the “serum GOT level versus PC group” value (Helicobacter pylori; not significantly different (p<0.08)) was “less than that of the PC group; also recorded: less than the positive control group”. The “Cu/Zn-SOD level greater than that of the PC group by” value (Cu/Zn-SOD; SAC1 group (200 mg/kg SAC)) was “about 4%”, the “Cu/Zn-SOD level greater than that of the PC group by” value (Cu/Zn-SOD; SAC2 group (400 mg/kg SAC)) was “about 3%” and the “serum Cu/Zn-SOD level versus positive control group” value (Cu/Zn-SOD; SAC-administered experimental group, dose not stated) was “higher than that of the positive control group”.
